The text below walks through data of patent US20050009903A1, “CB2-selective cannabinoid analogues” (priority 2003, published 2005).

For data set [1], the target named is T1, CB2 receptor (Homo sapiens, UniProt P34972). In words: [35S]GTPγS binding in human CB2 receptor-expressing CHO cell membranes. Format: biochemical. Also noted: expressed in transfected cells. Particulars: for efficacy in the [35S]GTPγS assay relative to CP-55,940: in words. For orientation: GTPγS is a poorly hydrolysed GTP analogue; its binding reports G protein activation.
T1 sequence (P34972 whole entry): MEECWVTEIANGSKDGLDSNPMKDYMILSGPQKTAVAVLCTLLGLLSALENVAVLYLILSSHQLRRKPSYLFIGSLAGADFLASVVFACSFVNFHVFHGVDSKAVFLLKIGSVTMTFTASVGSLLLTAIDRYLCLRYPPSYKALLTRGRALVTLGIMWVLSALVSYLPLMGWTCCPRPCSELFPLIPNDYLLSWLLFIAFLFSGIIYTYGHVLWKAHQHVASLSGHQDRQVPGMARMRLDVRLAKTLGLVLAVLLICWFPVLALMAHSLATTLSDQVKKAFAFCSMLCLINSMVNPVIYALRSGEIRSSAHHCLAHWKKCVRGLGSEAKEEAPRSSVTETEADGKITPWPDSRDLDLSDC

The target of data set [2] is T2, CB1 receptor (Rattus norvegicus, UniProt P20272).
T2 construct: from tissue; host or cells: rat whole brain, P2 membranes
T2 sequence (P20272 whole entry): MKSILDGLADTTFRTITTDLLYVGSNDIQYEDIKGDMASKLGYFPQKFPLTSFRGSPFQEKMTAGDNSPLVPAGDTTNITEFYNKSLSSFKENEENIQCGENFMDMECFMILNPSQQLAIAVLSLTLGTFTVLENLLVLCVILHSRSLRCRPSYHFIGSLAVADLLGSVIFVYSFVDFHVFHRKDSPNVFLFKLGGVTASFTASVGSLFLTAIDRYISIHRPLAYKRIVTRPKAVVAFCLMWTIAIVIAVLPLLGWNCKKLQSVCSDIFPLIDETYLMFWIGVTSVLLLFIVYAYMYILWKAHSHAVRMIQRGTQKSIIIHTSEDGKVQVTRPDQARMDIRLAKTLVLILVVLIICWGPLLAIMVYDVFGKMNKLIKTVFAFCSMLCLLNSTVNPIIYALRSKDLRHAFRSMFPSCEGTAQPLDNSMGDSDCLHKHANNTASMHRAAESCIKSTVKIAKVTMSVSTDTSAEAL
The note with it: cited from earlier work.

Data set [3] concerns the target T1, CB2 receptor. In words: CB2 assay: displacement of [3H]CP-55,940 from cloned human CB2 receptor preparation (transfected HEK 293 cells). Format: binding. Particulars: for Ratio CB1/CB2: Table 1; for Ratio CB1/CB2 / Ratio CB17CB2: ratio of Ki values; for selectivity for the CB2 receptor: CB2 over CB1 affinity. On the set-up: expressed in transfected cells. For orientation: In a radioligand displacement assay an active substance lowers the binding of a labelled ligand.

In data set [4] the target is T1, CB2 receptor. On the set-up: expressed in transfected cells. Particulars: cited from earlier work.
The target of data set [5] is T2, CB1 receptor. The data set is described as follows: CB1 assay: displacement of [3H]CP-55,940 from rat brain membrane preparation. Format: binding.
Data set [6] deals with CB1 receptor (Homo sapiens, UniProt P21554). The note with it: Gareau et al.; cited from earlier work.
CB1 receptor (Homo sapiens, UniProt P21554), sequence (P21554 whole entry): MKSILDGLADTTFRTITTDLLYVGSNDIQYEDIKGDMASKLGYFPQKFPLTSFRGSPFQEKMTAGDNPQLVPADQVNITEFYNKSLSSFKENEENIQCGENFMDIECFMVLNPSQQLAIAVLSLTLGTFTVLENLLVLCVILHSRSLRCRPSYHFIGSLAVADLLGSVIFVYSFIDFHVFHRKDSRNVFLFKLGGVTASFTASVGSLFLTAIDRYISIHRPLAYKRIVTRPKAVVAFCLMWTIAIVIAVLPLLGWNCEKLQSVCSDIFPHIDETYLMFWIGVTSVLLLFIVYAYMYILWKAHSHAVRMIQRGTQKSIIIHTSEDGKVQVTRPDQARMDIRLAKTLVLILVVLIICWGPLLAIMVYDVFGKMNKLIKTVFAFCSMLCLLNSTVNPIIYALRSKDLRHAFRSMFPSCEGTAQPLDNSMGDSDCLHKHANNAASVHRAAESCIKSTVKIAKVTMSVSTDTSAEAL
The target in data set [7] is T1, CB2 receptor.
Data set [8] concerns mouse vas deferens. Particulars: cited from earlier work.
Where [9] appears, read: Table 1, mean ± SEM, values marked ref 8, 19 or 20, read-out: Ki CB1.
Setting [10] is: previously reported by the applicants (literature refs), read-out: Ki at CB1 receptor.
[11] abbreviates: previously reported by the applicants (literature refs), read-out: Ki at CB2 receptor.
The mark [12] stands for this setting: Ki at CB2 receptor, cloned human CB2.
Setting [13] is: read-out: Emax relative to CP-55,940.
[14] abbreviates: rat brain membranes, read-out: Ki at CB1 receptor.
Setting [15] is: cloned human CB2, read-out: Ki at CB2 receptor.
Setting [16] is: read-out: CB1 (receptor affinity), Table 3, mean ± SEM, 3-(alkoxy-1-naphthoyl)indoles, the same values as Ki in nM.
[17] abbreviates: Table 2, mean ± SEM, 3-(alkyl-1-naphthoyl)indoles, read-out: Ki CB1.
Setting [18] is: Table 2, mean ± SEM, 3-(alkyl-1-naphthoyl)indoles, read-out: Ki CB2.
[19] abbreviates: Table 3, mean ± SEM, 3-(alkoxy-1-naphthoyl)indoles, the same values as Ki in nM, read-out: CB1 (receptor affinity).

Several values for one entry are separate records, joined by “and”; a condition that tells them apart may be missing. Identical values can stand only once. Like-named read-outs stand apart in the source and are kept apart here. Some results are limits rather than exact numbers.

One may read the EC50 as the concentration giving half of the maximal effect. Turning to “1-Methoxy-3-(1′,1′-dimethylhexyl)-Δ^8-THC [Compound 6e]”, the EC50 in data set [1] (Table 4, mean ± SEM, human CB2 CHO cells, read-out: EC50 GTPγS binding) was 4.6 ± 2 nM. Moreover, the “Emax (% CP-55940)” value in data set [1] (Table 4, mean ± SEM, per cent relative to 3 μM CP-55,940) was found to be 75.7 ± 8.3 % CP-55940.

For `CCCCCCC(C)(C)c1ccc2c(c1)OC(C)(C)C1CC=C(CO)CC21` (stereo not shown) [Compound 1, 1-Deoxy-11-hydroxy-3-(1′,1′-dimethylheptyl)-Δ^8-THC], the Ki in [2] (setting [9]) is 1.2 ± 0.1 nM; in data set [2] (setting [10]), 1.2 nM; in [4] (Table 1, mean ± SEM, values marked ref 30, 19 or 20, read-out: Ki CB2), 0.03 ± 0.02 nM; in data set [4] (setting [11]) it was 0.032 nM. Also, the “Ratio CB1/CB2” value in [3] was found to be 40.

As to `CCCCCCC(C)(C)c1ccc2c(c1)OC(C)(C)C1CC=C(C)CC21` (stereo not shown) [Compound 2, 1-Deoxy-3-(1′,1′-dimethylheptyl)-Δ^8-THC], the Ki in data set [2] (setting [9]) was 22.8 ± 7.3 nM; in data set [2] (setting [10]) it was 23 nM; in data set [4] (setting [11]), 2.9 nM. For the same compound, the “Ratio CB1/CB2” value in [3] came to 7.9.

For the compound `CCCCCCC(C)(C)c1cc(OC)c2c(c1)OC(C)(C)[C@@H]1CC=C(C)C[C@@H]21` [Compound 4, 3-(1′,1′-Dimethylheptyl)-1-methoxy-Δ^8-THC, reference compound], the Ki in data set [5] is 713 nM; in data set [2] (read-out: Ki at CB1 receptor, previously reported by the applicants (literature refs)), 924 ± 104 nM; in data set [7] (read-out: Ki at CB2; Gareau et al.; cited from earlier work), ~20 nM; in [3] (setting [12]), 57 nM; in data set [4] (read-out: Ki at CB2 receptor, previously reported by the applicants (literature refs)), 65 ± 8 nM. The “Ki at CB1” value in data set [6] is recorded as “virtually no affinity”. Moreover, the “Ratio CB1/CB2” value in data set [3] was 12 and 14.

As for `C=C1CCC2C(C1)c1c(OC)cc(C(C)(C)CCCCCC)cc1OC2(C)C` (stereo not shown) [Compound 5, 1-methoxy-66 ^9(11)-THC-DMH], the “Ki at CB1” value in data set [6] is recorded as “virtually no affinity”. Further, the Ki in [7] (Gareau et al.; read-out: Ki at CB2; cited from earlier work) is ~20 nM.

In the case of `CCCCCn1c(C)c(C(=O)c2cccc3ccccc23)c2ccccc21` [JWH-007, 1-pentyl-2-methyl-3-(1-naphthoyl)indole], in data set [3] (Table 2), the “Ratio CB17CB2” value was determined as 3.3. In addition, in data set [4] (read-out: Ki CB2, Table 2, mean ± SEM, values marked with literature refs), the Ki is 2 ± 2.6 nM.

One may read the Emax as the maximal effect, on the per cent scale that the assay sets. Regarding `CCCn1c(C)c(C(=O)c2cccc3ccccc23)c2ccccc21` [JWH-015, 2-Methyl-1-propyl-3-(1-naphthoyl)indole], the maximal response (Emax) in [1] (read-out: Emax (% CP-55940)) and in data set [1] (setting [13]) was 65.7 ± 6.4% throughout.

`CCCn1cc(C(=O)c2ccc(C)c3ccccc23)c2ccccc21` [JWH-120, 1-Propyl-3-(4-methyl-1-naphthoyl)indole]: the Ki in data set [5] (setting [14]) was determined as 1050 ± 31 nM; in data set [3] (setting [15]) it was 6.1 ± 7 nM. Further, in data set [3], the “selectivity for the CB2 receptor” value came to 173 fold. Besides, in data set [3] (Table 2), the “Ratio CB17CB2” value is given as 173. The EC50 in data set [1] is 5.1 ± 1.6 nM. In data set [1], the “efficacy in the [35S]GTPγS assay relative to CP-55,940” value is “partial agonists”. The maximum response (Emax) in data set [1] (read-out: Emax (% CP-55940)) and in data set [1] (setting [13]) was 78.1 ± 10.7% in each case.

With `CCCn1c(C)c(C(=O)c2cccc3cc(OC)ccc23)c2ccccc21` [JWH-151, 2-Methyl-1-propyl-3-(6-methoxy-1-naphthoyl)indole], the Ki in data set [5] is > 10000 nM; in [5] (setting [16]), > 10000 nM; in data set [3] (setting [15]) it was 30 ± 1 nM. Also, the “selectivity for the CB2 receptor” value in data set [3] is > 333 fold. This compound also came in with an EC50 in data set [1] of 12 ± 2.9 nM. Also, the “efficacy in the [35S]GTPγS assay relative to CP-55,940” value in [1] is recorded as “highly efficacious”. In addition, the Emax in data set [1] (read-out: Emax (% CP-55940)) and in data set [1] (setting [13]) was 108 ± 13% throughout.

For the compound `CCCCCn1c(C)c(C(=O)c2ccc(CC)c3ccccc23)c2ccccc21` [JWH-213, 2-Methyl-1-pentyl-3-(4-ethyl-1-naphthoyl)indole], the Ki in [5] (setting [17]) came to 1.5 ± 0.2 nM; in data set [3] (setting [18]), 0.42 ± 0.05 nM. Also, the “Ratio CB17CB2” value in [3] (Table 2) amounted to 3.6.

`CCCCCn1cc(C(=O)c2cccc3ccc(CC)cc23)c2ccccc21` [JWH-234, 1-Pentyl-3-(7-ethyl-1-naphthoyl)indole]: the Ki in data set [5] (setting [14]) was determined as 8.4 ± 1.8 nM; in data set [3] (setting [15]) it was 3.8 ± 0.6 nM. The “Ratio CB17CB2” value in data set [3] (Table 2) is reported as 2.2.

In the case of `CCCn1cc(C(=O)c2cccc3ccc(CC)cc23)c2ccccc21` [JWH-235, 1-Propyl-3-(7-ethyl-1-naphthoyl)indole], the Ki in data set [5] (setting [14]) amounted to 338 ± 34 nM; in [3] (setting [15]) it was 123 ± 34 nM. In addition, the “Ratio CB17CB2” value in data set [3] (Table 2) is 2.7.

On to `CCCn1c(C)c(C(=O)c2cccc3ccc(CC)cc23)c2ccccc21` [JWH-236, 2-Methyl-1-propyl-3-(7-ethyl-1-naphthoyl) indole], for which the results for the Ki in data set [5] (setting [14]) and in data set [3] (setting [15]) were 1350 ± 204 nM and 240 ± 63 nM, respectively. Moreover, the “Ratio CB17CB2” value in [3] (Table 2) is 5.6.

`CCCCc1ccc(C(=O)c2cn(CCC)c3ccccc23)c2ccccc12` [JWH-239, 1-Propyl-3-(4-butyl-1-naphthoyl)indole]: the Ki in [5] (setting [14]) is 342 ± 20 nM; in data set [3] (setting [15]), 52 ± 6 nM. In addition, the “Ratio CB17CB2” value in [3] (Table 2) is 6.6.

For `CCCCCn1cc(C(=O)c2ccc(CCCC)c3ccccc23)c2ccccc21` [JWH-240, 1-Pentyl-3-(4-butyl-1-naphthoyl)indole], the Ki came out at 14 ± 1 nM in data set [5] (setting [14]) and 7.2 ± 13 nM in data set [3] (setting [15]). Further, the “Ratio CB17CB2” value in [3] (Table 2) is 1.9.

Regarding `CCCCc1ccc(C(=O)c2c(C)n(CCC)c3ccccc23)c2ccccc12` [JWH-241, 2-Methyl-1-propyl-3-(4-butyl-1-naphthoyl)indole], the Ki came out at 147 ± 20 nM in data set [5] (setting [14]) and 49 ± 7 nM in [3] (setting [15]). Also, the “Ratio CB17CB2” value in data set [3] (Table 2) amounted to 3.0.

Consider `CCCCCn1c(C)c(C(=O)c2ccc(CCCC)c3ccccc23)c2ccccc21` [JWH-242, 2-Methyl-1-pentyl-3-(4-butyl-1-naphthoyl)indole], for which the Ki in data set [5] (setting [14]) came to 42 ± 9 nM; in [3] (setting [15]), 6.5 ± 0.3 nM. The “Ratio CB17CB2” value in [3] (Table 2) stood at 6.5.

Turning to `CCCCCn1cc(C(=O)c2ccc(OCC)c3ccccc23)c2ccccc21` [JWH-258, 1-Pentyl-3-(4-ethoxy-1-naphthoyl)indole], the Ki in data set [5] (setting [14]) came to 4.6 ± 0.6 nM; in data set [3] (setting [15]), 10.5 ± 1.3 nM.

In the case of `CCCn1cc(C(=O)c2ccc(OCC)c3ccccc23)c2ccccc21` [JWH-259, 1-Propyl-3-(4-ethoxy-1-naphthoyl)indole], the Ki is 220 ± 29 nM in [5] (setting [14]) and 74 ± 7 nM in data set [3] (setting [15]).

`CCCCCn1c(C)c(C(=O)c2ccc(OCC)c3ccccc23)c2ccccc21` [JWH-260, 2-Methyl-1-pentyl-3-(4-ethoxy-1-naphthoyl)indole]: the figures for the Ki in data set [5] (setting [14]) and in data set [3] (setting [15]) were 29 ± 0.4 nM and 25 ± 1.9 nM, respectively.

For the compound `CCCn1c(C)c(C(=O)c2ccc(OCC)c3ccccc23)c2ccccc21` [JWH-261, 2-Methyl-1-propyl-3-(4-ethoxy-1-naphthoyl)indole], the figures for the Ki in data set [5] (setting [14]) and in [3] (setting [15]) were 767 ± 105 nM and 221 ± 14 nM, respectively.

Turning to `CCCCCn1c(C)c(C(=O)c2cccc3ccc(CC)cc23)c2ccccc21` [JWH-262, 2-Methyl-1-pentyl-3-(7-ethyl-1-naphthoyl)indole], the Ki is 28 ± 3 nM in data set [5] (setting [17]) and 5.6 ± 0.7 nM in [3] (setting [18]). Further, in [3] (Table 2), the “Ratio CB17CB2” value is recorded as 5.0.

The melting point is the temperature, or range, at which the solid turns liquid. With `CCCn1cc(C(=O)c2c(OC)ccc3ccccc23)c2ccccc21` [JWH-265, 1-Propyl-3-(2-methoxy-1-naphthoyl)indole], the melting point lay within 117 to 119 °C. In addition, in data set [5] (setting [19]), the Ki was found to be 3790 ± 323 nM. The Ki in data set [3] (setting [15]) was 80 ± 13 nM.

As for `CCCn1c(C)c(C(=O)c2c(OC)ccc3ccccc23)c2ccccc21` [JWH-266, 2-Methyl-1-propyl-3-(2-methoxy-1-naphthoyl)indole], the results for the Ki in [5], in data set [5] (setting [16]) and in data set [3] (setting [12]) were > 10000 nM, > 10000 nM and 455 ± 55 nM, respectively.

`CCCCCn1cc(C(=O)c2c(OC)ccc3ccccc23)c2ccccc21` [JWH-267, 1-Pentyl-3-(2-methoxy-1-naphthoyl)indole]: the Ki was 381 ± 16 nM in data set [5] (setting [14]); 7.35 nM in [3] (setting [12]); 7.2 ± 0.14 nM in data set [3] (Table 3, mean ± SEM, 3-(alkoxy-1-naphthoyl)indoles, the same values as Ki in nM, read-out: CB2 (receptor affinity)). For the same compound, the “selectivity for the CB2 receptor” value in data set [3] was 53 fold. In data set [1], this compound had an EC50 of 4.9 ± 0.8 nM. Besides, in data set [1], the “efficacy in the [35S]GTPγS assay relative to CP-55,940” value was “partial agonists”. For the same compound, in [1] (read-out: Emax (% CP-55940)), the Emax turned out to be 67.3 ± 2.9%.

Consider `CCCCCn1c(C)c(C(=O)c2c(OC)ccc3ccccc23)c2ccccc21` [JWH-268, 2-Methyl-1-pentyl-3-(2-methoxy-1-naphthoyl)indole], for which the figures for the Ki in data set [5] (setting [19]) and in data set [3] (setting [15]) were 1380 ± 193 nM and 40 ± 1 nM, respectively.

`COc1ccc(C(=O)c2c(C)n(CCN3CCOCC3)c3ccccc23)cc1` [pravadoline]: in data set [8], the “contractions of electrically stimulated mouse vas deferens” value was “inhibited contractions”.
